Read-outs that look alike come from different tables or passages of the source.
What was measured:
[1] = cited from earlier work
[2] = tested on: SARS-CoV-2; assay: Proof of concept study: time to negative SARS-CoV-2 test in asymptomatic positive patients; format: in vivo, human; conditions: resveratrol alone by nasal and throat spray and/or inhalation, 6.0 mg per day for 2 weeks; 40 patients
From the text: About 100 adult asymptomatic patients, which are positive for SARS-CoV-2, are included in the study after a confirmatory test. […] Subsequently, the patients have a daily SARS-CoV-2 tests until day 7 and then at End of Treatment day 14.

[3] = tested on: NLRP3 inflammasome; conditions: macrophages; cited from earlier work
[4] = tested on: K18-hACE2 transgenic mouse; format: in vivo; conditions: after 7 days
[5] = RSV 30 mg in food (aqueous phospholipid formulation)
[6] = RSV 45 mg in food (aqueous phospholipid formulation)
[7] = RSV 60 mg in food (aqueous phospholipid formulation)

Oc1ccc(/C=C/c2cc(O)cc(O)c2)cc1 [RSV, resveratrol]
solubility in water [1]: almost insoluble | time to negative SARS-CoV-2 test compared to patients without treatment [2]: significantly earlier | NLRP3 inflammasome-derived IL-1β secretion and pyroptosis [3]: inhibits | Survival Rate [%] [4, 5]: 37.5% | Survival Rate n/8 [4, 5]: 3 n/8 | Survival Rate [%] [4, 6]: 50% | Survival Rate n/8 [4, 6]: 4 n/8 | Survival Rate [%] [4, 7]: 62.5% | Survival Rate n/8 [4, 7]: 5 n/8

From patent US20230145555A1 (priority 2020, published 2023)
